Data from PubChem BioAssay (NCI).
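Step 1: Grow cells in 96-well plates. Step 2: Expose to compound for 48 hours at 5 concentrations. Step 3: Interpolate endpoints linearly; if unreached, use highest concentration. GI50 marks 50% less growth. TGI is the concentration that stops growth completely.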

Columns and labels:
Test in all cases: growth of human tumour cells (NCI), 48 h
NCI-H460 lung = system: NCI-H460 lung
A498 renal = system: A498 renal
MOLT-4 leukemia = system: MOLT-4 leukemia
SNB-19 CNS = system: SNB-19 CNS
MDA-MB-231 breast = system: MDA-MB-231 breast
DU-145 prostate = system: DU-145 prostate
ACHN renal = system: ACHN renal
CCRF-CEM leukemia = system: CCRF-CEM leukemia
HOP-62 NSCLC = system: HOP-62 NSCLC
IGROV1 ovarian = system: IGROV1 ovarian
COLO 205 colon = system: COLO 205 colon
SF-268 CNS = system: SF-268 CNS
SR leukemia = system: SR leukemia
OVCAR-5 ovarian = system: OVCAR-5 ovarian
KM12 colon = system: KM12 colon
M14 melanoma = system: M14 melanoma
MDA-MB-435 = system: MDA-MB-435
HL-60(TB) leukemia = system: HL-60(TB) leukemia
T-47D breast = system: T-47D breast
MCF7 breast = system: MCF7 breast
HCT-15 colon = system: HCT-15 colon
HT29 colon = system: HT29 colon
UACC-62 melanoma = system: UACC-62 melanoma
MALME-3M melanoma = system: MALME-3M melanoma
NCI-H226 lung = system: NCI-H226 lung
K-562 leukemia = system: K-562 leukemia
SK-OV-3 ovarian = system: SK-OV-3 ovarian
NCI/ADR-RES ovarian = system: NCI/ADR-RES ovarian
TK-10 renal = system: TK-10 renal
RPMI-8226 leukemia = system: RPMI-8226 leukemia
PC-3 prostate = system: PC-3 prostate
LOX IMVI melanoma = system: LOX IMVI melanoma
CAKI-1 renal = system: CAKI-1 renal
HCT-116 colon = system: HCT-116 colon
SK-MEL-5 melanoma = system: SK-MEL-5 melanoma
SW-620 colon = system: SW-620 colon
SF-295 CNS = system: SF-295 CNS
RXF 393 renal = system: RXF 393 renal
OVCAR-3 ovarian = system: OVCAR-3 ovarian
OVCAR-4 ovarian = system: OVCAR-4 ovarian
HOP-92 NSCLC = system: HOP-92 NSCLC
HS 578T breast = system: HS 578T breast
OVCAR-8 ovarian = system: OVCAR-8 ovarian
SN12C renal = system: SN12C renal
A549 NSCLC = system: A549 NSCLC
NCI-H23 lung = system: NCI-H23 lung
SF-539 CNS = system: SF-539 CNS
786-0 renal = system: 786-0 renal
HCC-2998 colon = system: HCC-2998 colon
BT-549 breast = system: BT-549 breast
U251 CNS = system: U251 CNS
SK-MEL-28 melanoma = system: SK-MEL-28 melanoma
UO-31 renal = system: UO-31 renal
EKVX NSCLC = system: EKVX NSCLC
SK-MEL-2 melanoma = system: SK-MEL-2 melanoma
UACC-257 melanoma = system: UACC-257 melanoma

For `CCOC(=O)c1c(Cl)c2c(n1Cc1ccccc1)-c1oncc1CCC2`, the GI50 (NCI-H460 lung) was 3.62 µM, the TGI (NCI-H460 lung) was > 100 µM and the GI50 (A498 renal) was 4.38 µM. The TGI (A498 renal) was > 100 µM, the GI50 (MOLT-4 leukemia) was 3.58 µM and the TGI (MOLT-4 leukemia) was > 100 µM. The GI50 (SNB-19 CNS) was > 100 µM, the TGI (SNB-19 CNS) was > 100 µM and the GI50 (MDA-MB-231 breast) was 3.51 µM. For the same molecule, the TGI (MDA-MB-231 breast) was > 100 µM, the GI50 (DU-145 prostate) was > 100 µM and the TGI (DU-145 prostate) was > 100 µM. The GI50 (ACHN renal) was 5.89 µM, the TGI (ACHN renal) was > 100 µM and the GI50 (CCRF-CEM leukemia) was 2.21 µM. The TGI (CCRF-CEM leukemia) was > 100 µM, the GI50 (HOP-62 NSCLC) was 4.35 µM and the TGI (HOP-62 NSCLC) was > 100 µM. The GI50 (IGROV1 ovarian) was 4.39 µM, the TGI (IGROV1 ovarian) was > 100 µM and the GI50 (COLO 205 colon) was 3.53 µM. The TGI (COLO 205 colon) was > 100 µM, the GI50 (SF-268 CNS) was > 100 µM and the TGI (SF-268 CNS) was > 100 µM. The GI50 (SR leukemia) was 1.8 µM, the TGI (SR leukemia) was 8.24 µM and the GI50 (OVCAR-5 ovarian) was > 100 µM. For the same molecule, the TGI (OVCAR-5 ovarian) was > 100 µM, the GI50 (KM12 colon) was 3.71 µM and the TGI (KM12 colon) was > 100 µM. For the same molecule, the GI50 (M14 melanoma) was 3.78 µM, the TGI (M14 melanoma) was > 100 µM and the GI50 (MDA-MB-435) was 1.4 µM. For the same molecule, the TGI (MDA-MB-435) was 4.92 µM, the GI50 (HL-60(TB) leukemia) was 3.32 µM and the TGI (HL-60(TB) leukemia) was > 100 µM. The GI50 (T-47D breast) was 2.69 µM, the TGI (T-47D breast) was > 100 µM and the GI50 (MCF7 breast) was 3.21 µM. For the same molecule, the TGI (MCF7 breast) was > 100 µM, the GI50 (HCT-15 colon) was 3.39 µM and the TGI (HCT-15 colon) was > 100 µM. The GI50 (HT29 colon) was 2.95 µM, the TGI (HT29 colon) was 8.52 µM and the GI50 (UACC-62 melanoma) was 4.01 µM. The TGI (UACC-62 melanoma) was > 100 µM, the GI50 (MALME-3M melanoma) was 3.68 µM and the TGI (MALME-3M melanoma) was > 100 µM. The GI50 (NCI-H226 lung) was > 100 µM, the TGI (NCI-H226 lung) was > 100 µM and the GI50 (K-562 leukemia) was 3.68 µM. The TGI (K-562 leukemia) was > 100 µM, the GI50 (SK-OV-3 ovarian) was > 100 µM and the TGI (SK-OV-3 ovarian) was > 100 µM. The GI50 (NCI/ADR-RES ovarian) was 2.83 µM, the TGI (NCI/ADR-RES ovarian) was > 100 µM and the GI50 (TK-10 renal) was > 100 µM. For the same molecule, the TGI (TK-10 renal) was > 100 µM, the GI50 (RPMI-8226 leukemia) was 3.27 µM and the TGI (RPMI-8226 leukemia) was > 100 µM. For the same molecule, the GI50 (PC-3 prostate) was 3.17 µM, the TGI (PC-3 prostate) was > 100 µM and the GI50 (LOX IMVI melanoma) was 5.26 µM. For the same molecule, the TGI (LOX IMVI melanoma) was > 100 µM, the GI50 (CAKI-1 renal) was 3.51 µM and the TGI (CAKI-1 renal) was > 100 µM. The GI50 (HCT-116 colon) was 4.02 µM, the TGI (HCT-116 colon) was > 100 µM and the GI50 (SK-MEL-5 melanoma) was 3.53 µM. The TGI (SK-MEL-5 melanoma) was > 100 µM, the GI50 (SW-620 colon) was 3.81 µM and the TGI (SW-620 colon) was > 100 µM. The GI50 (SF-295 CNS) was > 100 µM and the TGI (SF-295 CNS) was > 100 µM.
With `O=C(NC1CCCCC1)c1n[nH]nc1Cl` the TGI (NCI-H460 lung) was > 100 µM, the TGI (RXF 393 renal) was > 100 µM and the TGI (OVCAR-3 ovarian) was > 100 µM. For the same molecule, the TGI (A498 renal) was > 100 µM, the TGI (OVCAR-4 ovarian) was > 100 µM and the TGI (MOLT-4 leukemia) was > 100 µM. For the same molecule, the TGI (SNB-19 CNS) was > 100 µM, the TGI (MDA-MB-231 breast) was > 100 µM and the TGI (DU-145 prostate) was > 100 µM. For the same molecule, the TGI (HOP-92 NSCLC) was > 100 µM, the TGI (HS 578T breast) was > 100 µM and the TGI (ACHN renal) was > 100 µM. The TGI (OVCAR-8 ovarian) was > 100 µM, the TGI (CCRF-CEM leukemia) was > 100 µM and the TGI (SN12C renal) was > 100 µM. The TGI (HOP-62 NSCLC) was > 100 µM, the TGI (A549 NSCLC) was > 100 µM and the TGI (NCI-H23 lung) was > 100 µM. The TGI (SF-539 CNS) was > 100 µM, the TGI (IGROV1 ovarian) was > 100 µM and the TGI (COLO 205 colon) was > 100 µM. The TGI (SF-268 CNS) was > 100 µM, the TGI (OVCAR-5 ovarian) was > 100 µM and the TGI (KM12 colon) was > 100 µM. For the same molecule, the TGI (M14 melanoma) was > 100 µM, the TGI (MDA-MB-435) was > 100 µM and the TGI (786-0 renal) was > 100 µM. The TGI (HCC-2998 colon) was > 100 µM, the TGI (T-47D breast) was > 100 µM and the TGI (MCF7 breast) was > 100 µM. For the same molecule, the TGI (HCT-15 colon) was > 100 µM, the TGI (HT29 colon) was > 100 µM and the TGI (UACC-62 melanoma) was > 100 µM. The TGI (BT-549 breast) was > 100 µM, the TGI (U251 CNS) was > 100 µM and the TGI (SK-MEL-28 melanoma) was > 100 µM. For the same molecule, the TGI (K-562 leukemia) was > 100 µM, the TGI (SK-OV-3 ovarian) was > 100 µM and the TGI (NCI/ADR-RES ovarian) was > 100 µM. The TGI (UO-31 renal) was > 100 µM, the TGI (EKVX NSCLC) was > 100 µM and the TGI (SK-MEL-2 melanoma) was > 100 µM. For the same molecule, the TGI (TK-10 renal) was > 100 µM, the TGI (PC-3 prostate) was > 100 µM and the TGI (LOX IMVI melanoma) was > 100 µM. For the same molecule, the TGI (CAKI-1 renal) was > 100 µM, the TGI (HCT-116 colon) was > 100 µM and the TGI (SK-MEL-5 melanoma) was > 100 µM. For the same molecule, the TGI (SW-620 colon) was > 100 µM, the TGI (UACC-257 melanoma) was > 100 µM and the TGI (SF-295 CNS) was > 100 µM.
